For one data set, the target named is T1, HM74A (Homo sapiens, UniProt Q8TDS4).
T1 construct: expressed in transfected cells; host or cells: HEK-293, stably transfected with pcDNA3.1 vectors
Nature of the data set: Secondary fluorescent calcium indicator assay (FLIPR). The data set is classed as cell-based. Conditions: stable transfected HEK-293 cells expressing HM74A and chimeric G protein Gqi9; % stimulation of maximal nicotinic acid response (100 μM). As to the method:
Secondary Fluorescent Calcium Indicator Assay (FLIPR)
HEK-293 cells were grown in tissue culture medium (DMEM/Nut mix F12 Medium with Glutamax I (Invitrogen), containing 10% FBS) at 37° C. in a 5% CO2 atmosphere. These cells were cultured in 6-well dishes at 3×10^5 cells/well and double transfected with DNA vectors (pcDNA3.1, Invitrogen) expressing either HM74A or HM74 and the chimeric G protein Gqi9. Two days after transfection the wells were combined and plated in 150 cm^2 flasks, in the presence of 50 μg/ml Hygromycin (Invitrogen) and 500 μg/ml Geneticin (Gibco). Fourteen days after plating, colonies were picked, expanded and analyzed for expression using a functional assay (FLIPR). Stable transfected HEK-293 cells expressing either HM74A or HM74 and the chimeric G protein Gqi9 were plated at 50,000 cells/well in black 96-well plates with clear bottom (Costar) and cultured to confluency overnight in growth media (DMEM/Nut mix F12 Medium with Glutamax I (Invitrogen), containing 10% FBS) at 37° C. in a humidified cell incubator containing 5% CO2. Growth media was aspirated and replaced with 100 μl of 1×FLIPR Calcium Assay Dye (Molecular Devices) in Hank's balanced salt solution (HBSS) containing 10 mM HEPES, and […] probenecid (Sigma), for 1 hour at 37° C. Cell plates were transferred to a FLIPR unit (Molecular Devices), and 50 μl of 3× compound dilution were added. Fluorescence emissions were measured and the effects of compounds were expressed as % stimulation of maximal nicotinic acid response (100 μM). Sigmoidal curves were fitted using the XLfit3 program (ID Business Solutions Ltd. UK) and EC50 values determined.

T1 sequence (Q8TDS4 whole entry): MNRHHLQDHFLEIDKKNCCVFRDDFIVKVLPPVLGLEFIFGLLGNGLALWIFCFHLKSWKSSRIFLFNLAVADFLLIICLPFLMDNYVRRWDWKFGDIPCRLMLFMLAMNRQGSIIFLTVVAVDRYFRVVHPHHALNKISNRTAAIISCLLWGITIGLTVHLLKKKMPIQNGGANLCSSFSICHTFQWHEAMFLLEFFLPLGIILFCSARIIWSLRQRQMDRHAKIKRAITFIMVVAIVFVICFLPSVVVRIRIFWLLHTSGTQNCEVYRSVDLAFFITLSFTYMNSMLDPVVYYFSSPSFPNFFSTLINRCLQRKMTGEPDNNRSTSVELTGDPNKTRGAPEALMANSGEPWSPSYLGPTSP

The EC50 is the concentration needed to bring the measured effect to its halfway point. On to `O=C(Nc1ccccc1C(=O)O)c1ccc(Oc2cc(F)ccc2F)cc1` [Example 29, 2-[4-(2,5-Difluoro-phenoxy)-benzoylamino]-benzoic acid], for which the EC50 at HM74A was found to be 101 nM.
On the same count and under the same terms, for “2-[4-(4-Fluoro-phenoxy)-benzoylamino]-benzoic acid [Example 2]” the value was 1100 nM; for `O=C(Nc1ccccc1C(=O)O)c1ccc(Oc2cccc(Cl)c2)cc1` [Example 17, 2-[4-(3-Chloro-phenoxy)-benzoylamino]-benzoic acid], 529 nM.
As a reminder, the melting point is the temperature of the solid-liquid transition. `Cc1cc(C(=O)Nc2ccccc2C(=O)O)ccc1Oc1ccccc1` [Example 30, 2-(3-Methyl-4-phenoxy-benzoylamino)-benzoic acid] showed a melting point of 123 °C.
